Experimental data taken from US20250059196A1 (SHANGHAI HANSOH BIOMEDICAL CO., LTD., priority 2021, published 2025).
Like-named read-outs stand apart in the source and are kept apart here.

Columns and labels:
[1] = Pharmacokinetics of oral administration in Balb/C mice; format: in vivo; set-up: Cmax: unit: ng/mL; settings: 30 mg/kg, P.O., plasma
Procedure: Balb/C mice were used as test animals to study the pharmacokinetic behavior of the compound in the plasma of mice after oral administration at a dose of 30 mg/kg.
3 Balb/C mice (3/example), male, from Shanghai Jiesijie Experimental Animal Co., Ltd., animal production license number (SCXK (Shanghai) 2013-0006 N0.311620400001794).
3 Balb/C mice, male; p.o. respectively at a dose of 30 mg/kg and an administration volume of 10 mL/kg after the mice were fasted overnight.
Before and after administration of mice, 0.1 mL of blood was collected from the orbit at 0, 0.5, 1, 2, 4, 6, 8 and 24 h, and placed in EDTA-K2 test tubes, which was centrifuged at 6000 rpm at 4° C. for 6 min to separate plasma which was stored at −80° C.
• 1) 160 μL of acetonitrile was added to 40 μL of plasma sample for precipitation, and same was mixed and centrifuged at 3500×g for 5 to 20 min. • 2) 100 μL of the treated supernatant solution was taken and subjected to LC/MS/MS to analyze the concentrations of the test compounds.
• Liquid phase conditions: Shimadzu LC-20AD pump • Mass spectrometry conditions: AB Sciex API 4000 mass spectrometer • Chromatographic column: Phenomenex Gemiu 5 um C18 50×4.6 mm • Mobile phase: liquid A is 0.1% aqueous formic acid solution, liquid B is acetonitrile • flow rate: 0.8 mL/min • Elution time: 0-4.0 min, the eluent is as follows:
The main pharmacokinetic parameters were calculated using WinNonlin 8.2.

[2] = Caco-2 bidirectional permeability test; settings: human, Caco-2
Procedure: The purpose of this experiment is to test the bidirectional permeability of the compound through the Caco-2 cell model and evaluate whether the compound is transported by efflux transporters.
Liquid chromatography-mass spectrometer, centrifuge, vortexer, pipette, 96-well test plate (HTS Transwell Plate), acetonitrile solution containing internal standard, Caco-2 cells (ATCC), Hank's balance solution (HBSS), fluorescent yellow (LY), dimethyl sulfoxide (DMSO).
108 μL of transport buffer (HBSS containing 10 μM of the example compound) was added to the administration end of A to B. • b. 300 μL of transport buffer (HBSS containing DMSO) was added to the receiving end of A to B. • c. 300 μL of transport buffer (HBSS containing 10 μM example compound) was added to the administration end of A to B. • d. 108 μL of transport buffer (HBSS containing DMSO) was added to the receiving end of A to B. • e. incubation was performed for 90 min. • d. a sample was taken, processed and detected with mass spectrometry.
• Instruments: Liquid Chromatography; • Chromatographic column: Waters XSelect HSS T3 2.5 μm (2.1×50 mm); • Mobile phase: Phase A: 0.1% formic acid in pure water; Phase B: 0.1% formic acid in acetonitrile.
• Instruments: AP16500+liquid chromatography-mass spectrometer; • The ion source is electrospray ionization source (ESI); • The detection method is positive ion detection;
The scanning method is selected reaction monitoring (MRM).

[3] = test system: OCI-Ly3 cells; experiment: Inhibition of proliferation of OCI-Ly3 cells (CellTiter-Glo); format: cell-based, human; settings: 96 h incubation, read-out: Inhibition test of proliferation of OCI-Ly3 cells IC50
Procedure: The compound's inhibitory effect on the proliferation of TMD8 and OCI-Ly3 cells was evaluated through cell proliferation inhibition experiments.
The compound's inhibitory effect on the proliferation of TMD8 and OCI-Ly3 cells was detected by the CellTiter-Glo method. The highest concentration of the compound detected was 1000 nM, 3-fold dilution, a total of 9 concentrations (1000 nM-0.15 nM). After the cells were plated at an appropriate density, compounds were added the next day and incubated for 96 h before detection using the CellTiter-Glo Luminescent detection kit.
(§1) Log(inhibitor) vs. response—Variable slope (four parameters) in GraphPad Prism 6 was used to perform fitting equation analysis on compound concentration and corresponding inhibition rate, the curve was fit and compound IC50 value was obtained.
(§2) The fitting calculation equation is Y=Bottom+(Top−Bottom)/(1+10^((Log IC50−X)*HillSlope))

[4] = molecular target: MALT1 protease activity in TMD8 cells (substrate BCL-10) (Homo sapiens (Human), UniProt Q9UDY8); experiment: Intracellular MALT1 protease activity detection (BCL-10 ELISA in TMD8 cells); format: cell-based; settings: undigested BCL-10 by ELISA, 30 min compound then 2 h stimulation cocktail, read-out: Bcl10 TMD8 IC50
MALT1 protease activity in TMD8 cells (substrate BCL-10), sequence (Q9UDY8 whole entry): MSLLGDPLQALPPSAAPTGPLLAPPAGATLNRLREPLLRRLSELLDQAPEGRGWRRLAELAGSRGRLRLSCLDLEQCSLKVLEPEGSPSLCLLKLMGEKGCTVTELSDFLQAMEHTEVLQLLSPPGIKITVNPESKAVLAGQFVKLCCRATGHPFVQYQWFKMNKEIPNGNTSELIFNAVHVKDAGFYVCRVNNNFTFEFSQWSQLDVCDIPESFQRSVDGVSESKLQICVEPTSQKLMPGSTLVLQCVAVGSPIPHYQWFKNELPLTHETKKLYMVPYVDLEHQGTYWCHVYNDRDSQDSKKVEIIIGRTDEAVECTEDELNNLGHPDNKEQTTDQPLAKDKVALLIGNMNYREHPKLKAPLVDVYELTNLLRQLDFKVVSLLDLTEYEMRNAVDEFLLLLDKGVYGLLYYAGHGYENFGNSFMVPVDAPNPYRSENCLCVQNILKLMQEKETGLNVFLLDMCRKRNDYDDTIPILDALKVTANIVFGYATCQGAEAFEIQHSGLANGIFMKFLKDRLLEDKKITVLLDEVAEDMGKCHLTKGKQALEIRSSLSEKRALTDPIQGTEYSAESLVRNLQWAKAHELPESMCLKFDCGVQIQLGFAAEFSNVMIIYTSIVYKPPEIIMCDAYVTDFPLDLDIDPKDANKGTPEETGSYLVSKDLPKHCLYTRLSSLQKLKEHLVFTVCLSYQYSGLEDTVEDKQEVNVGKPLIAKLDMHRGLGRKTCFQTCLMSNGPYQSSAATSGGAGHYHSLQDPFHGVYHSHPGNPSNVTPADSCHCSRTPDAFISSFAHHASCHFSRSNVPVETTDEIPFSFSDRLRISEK
Procedure: By detecting the digestion level of the substrate BCL-10 by MALT1 in TMD8 cells, the inhibitory effect of the compound on MALT1 protease activity in the cellular environment was tested.
The ELISA sandwich method was used to detect the content of undigested BCL-10 protein in cells and determine the inhibitory effect of compounds on intracellular MALT1 protease activity. The highest concentration of the compound detected was 10000 nM, 3-fold dilution, a total of 9 concentrations (10000 nM-1.5 nM). Cells were plated at an appropriate density. Compounds of corresponding concentrations were first added for action for 30 min, and then eBioscience cell stimulation cocktail was added to stimulate the cells for 2 h. Cell lysate was then collected. The cell lysate was added to the assay plate previously coated with recombinant BCL-10 antibody (Abcam, #Ab33905) and incubated at 4° C. overnight. The next day, BCL-10 detection antibody (Santacruz, #Sc-5273HRP) was added and incubated for 2 h, TMB substrate was used for color development for about 30 min, then the color development was terminated, and a microplate reader was used for detection.
2) Curve fitting: Log(inhibitor) vs. response—Variable slope (four parameters) in GraphPad Prism 6 was used to perform fitting equation analysis on compound concentration and corresponding inhibition rate, the curve was fit and compound IC50 value was obtained.
as §2

[5] = molecular target: Recombinant human MALT1/MLT protein (Homo sapiens (Human), UniProt Q9UDY8); experiment: Inhibitory effect on MALT1 enzyme activity (Ac-LRSR-AMC substrate, fluorescence 460 nm); format: biochemical; settings: 10 nM FL MALT1, Ac-LRSR-AMC substrate, 50 min pre-incubation, 4 h reaction
Recombinant human MALT1/MLT protein, sequence (Q9UDY8 whole entry): as above
Procedure: Ac-LRSR-AMC was used as the substrate to test the IC50 of the inhibitory activity of compounds on MALT1 enzyme activity at their Km concentration.
Ac-LRSR-AMC was used as the substrate which was digested by MALT1 to produce products, which produced fluorescence that could be detected at 460 nm. The highest concentration of the compound detected was 1000 nM, 3-fold dilution, a total of 11 concentrations (1000 nM-0.017 nM). The reaction system is 10 nM FL MALT1 protein, […] Ac-LRSR-AMC, 50 mM Tris pH 7.5, 0.6M Citrate, 1 mM DTT, 1 mM EDTA, 0.05% BSA and 1.5% DMSO. The compound and the enzyme were pre-incubated at room temperature for 50 min. The substrate was then added and the reaction was carried out for 4 h.
The original data (460 nm reading) was calculated according to the following formula to obtain the inhibition rate.
as §1, §2

[6] = male, mouse, po, read-out: AUC 0-t
[7] = male, mouse, po, read-out: Cmax
[8] = male, mouse, po, read-out: Tmax

SMILES	AUC(0-inf) ([1]; male, mouse, po) [ng·h/mL]	half-life ([1]; male, mouse, po) [h]	AUC(0-t) [1, 6] [ng·h/mL]	Cmax [1, 7] [ng/mL]	MRT ([1]; male, mouse, po, read-out: MRT) [h]	Tmax [1, 8] [h]	IC50 ([3]; Homo sapiens) [nM]	IC50 [4] [nM]	IC50 [5] [nM]	also measured
O=C(Nc1cnc(-n2nccn2)c(Cl)c1)c1cnn(-c2ccc3c4c(cccc24)C(=O)N3)c1C(F)(F)F [Example 5, N-(6-(2H-1,2,3-triazol-2-yl)-5-chloropyridin-3-yl)-1-(2-oxo-1,2-dihydrobenzo[cd]indol-6-yl)-5-trifluoromethyl-1H-pyrazole-4-carboxamide]	64100	2.1	64100	7180	5.2	2	120	36	15	Papp A→B at 90 min, 10 µM [2]: 1 ×10⁻⁶ cm/s; Papp B→A at 90 min, 10 µM [2]: 7.03 ×10⁻⁶ cm/s; efflux ratio at 90 min, 10 µM [2]: 7.09
O=C(Nc1cc(Cl)n2ncc(Cl)c2c1)c1cnn(-c2ccc3c4c(cccc24)C(=O)N3)c1C(F)(F)F [Example 13, N-(3,7-dichloropyrazolo[1,5-a]pyridin-5-yl)-1-(2-oxo-1,2-dihydrobenzo[cd]indol-6-yl)-5-trifluoromethyl-1H-pyrazole-4-carboxamide]	67800	6.2	62700	4380	9.4	4	272	–	107	Papp A→B at 90 min, 10 µM [2]: 7.63 ×10⁻⁶ cm/s; Papp B→A at 90 min, 10 µM [2]: 19.1 ×10⁻⁶ cm/s; efflux ratio at 90 min, 10 µM [2]: 2.5
O=C(Nc1cnc(-n2cccn2)c(C(F)(F)F)c1)c1cnn(-c2ccc3c4c(cccc24)C(=O)N3)c1C(F)(F)F [Example 31, N-(6-(1H-pyrazol-1-yl)-5-(trifluoromethyl)pyridin-3-yl)-1-(2-carbonyl-1,2-dihydrobenzo[cd]indol-6-yl)-5-(trifluoromethyl)-1H-pyrazole-4-carboxamide]	197000	1.9	197000	25900	4.7	2	206	103	–	–
Cc1ncn(-c2ncc(NC(=O)c3cnn(-c4ccc5c6c(cccc46)C(=O)N5)c3C(F)(F)F)cc2Cl)n1 [Example 46]	–	–	–	–	–	–	–	80	93	IC50 [3]: 222 nM
O=C(Nc1cnc(-n2nccn2)c(C(F)F)c1)c1cnn(-c2ccc3c4c(cccc24)C(=O)N3)c1C(F)(F)F [Example 49, N-(5-difluoromethyl-6-(2H-1,2,3-triazol-2-yl)-pyridin-3-yl)-1-(2-oxo-1,2-dihydrobenzo[cd]indol-6-yl)-5-trifluoromethyl-1H-pyrazole-4-carboxamide]	105000	2.1	105000	15300	4.3	2	97	73	28	–
O=C(Nc1ccc(-n2nccn2)c(C(F)(F)F)c1)c1cnn(-c2ccc3c4c(cccc24)C(=O)N3)c1C(F)(F)F [Example 50, N-(4-(2H-1,2,3-triazol-2-yl)-3-(trifluoromethyl)phenyl)-1-(2-oxo-1,2-dihydrobenzo[cd]indol-6-yl)-5-(trifluoromethyl)-1H-pyrazole-4-carboxamide]	–	–	54400	3020	–	8	219	–	39	–
O=C(Nc1cnc(-n2nccn2)c(C(F)(F)F)c1)c1cnn(-c2ccc3c4c(cccc24)C(=O)N3)c1C1CC1 [Example 56, N-(6-(2H-1,2,3-triazol-2-yl)-5-(trifluoromethyl)pyridin-3-yl)-5-cyclopropyl-1-(2-oxo-1,2-dihydrobenzo[cd]indol-6-yl)-1H-pyrazole-4-carboxamide]	–	–	–	–	–	–	152	93	31	–
O=C(Nc1cnc(-n2nccn2)c(Cl)c1)c1cnn(-c2ccc3c4c(cccc24)C(=O)N3)c1C1CC1 [Example 60, N-(5-chloro-6-(2H-1,2,3-triazol-2-yl)-pyridin-3-yl)-5-cyclopropyl-1-(2-oxo-1,2-dihydrobenzo[cd]indol-6-yl)-1H-pyrazole-4-carboxamide]	–	–	–	–	–	–	132	57	16	–
O=C(Nc1ccc(-n2nccn2)c(Cl)c1)c1cnn(-c2ccc3c4c(cccc24)C(=O)N3)c1C1CC1 [Example 63, N-(3-chloro-4-(2H-1,2,3-triazol-2-yl)phenyl)-5-cyclopropyl-1-(2-oxo-1,2-dihydrobenzo[cd]indol-6-yl)-1H-pyrazole-4-carboxamide]	–	–	–	–	–	–	154	58	28	–
O=C(Nc1cnc(-n2nccn2)c(C(F)(F)F)c1)c1cnn(-c2ccc3c4c(cccc24)C(=O)N3)c1C(F)F [Example 66, N-(6-(2H-1,2,3-triazol-2-yl)-5-trifluoromethylpyridin-3-yl)-5-difluoromethyl-1-(2-oxo-1,2-dihydrobenzo[cd]indol-6-yl)-1H-pyrazole-4-carboxamide]	–	–	–	–	–	–	87	–	193	–
O=C(Nc1cnc(-n2nccn2)c(C(F)(F)F)c1)c1cnn(-c2cnc3c4c(cccc24)C(=O)N3)c1C(F)(F)F [Example 68]	–	–	–	–	–	–	–	72	51	AUC0-∞ [1]: 10,388 ng/mL*hr; AUC(0-t) [1]: 10,168 ng/mL*h; Cmax [1]: 2,670 ng/mL; MRT [1]: 2.6 h; T1/2 [1]: 1.2 h; Tmax [1]: 0.5 h; IC50 [3]: 271 nM
O=C(Nc1ccc(-n2nccn2)c(Cl)c1)c1cnn(-c2cnc3c4c(cccc24)C(=O)N3)c1C(F)(F)F [Example 75, N-(3-chloro-4-(2H-1,2,3-triazol-2-yl)phenyl)-1-(2-carbonyl-1,2-dihydropyrrolo[4,3,2-ij]isoquinolin-6-yl)-5-(trifluoromethyl)-1H-pyrazole-4-carboxamide]	12200	3	12200	1290	5.5	2	213	83	–	–
O=C(Nc1cnc(-n2nccn2)c(C(F)(F)F)c1)c1cnn(-c2cnc3c4c(cccc24)C(=O)N3)c1C1CC1 [Example 78, N-(6-(2H-1,2,3-triazol-2-yl)-5-(trifluoromethyl)pyridin-3-yl)-5-cyclopropyl-1-(2-oxo-1,2-dihydropyrrolo[4,3,2-ij]isoquinolin-6-yl)-1H-pyrazole-4-carboxamide]	–	–	–	–	–	–	–	67	–	–
